Test results reported in US20090221624A1, “4-AMINOQUINOLINE COMPOUNDS FOR TREATING VIRUS-RELATED CONDITIONS” (priority 2005, published 2009).

Experiments:
[1] = in vitro
[2] = tested on: WNV (WN-hRuPac cells); assay: WNV antiviral activity, WN-hRuPac cells, Renilla luciferase; type: cell-based, West Nile virus; settings: for EC50 / inhibition at 25 µM: West Nile virus; for EC50: Secondary Data, WNV, read-out: WNV EC50; for inhibition at 25 µM: primary screening, 25 μM final concentration, 24 hours, percent inhibition of viral replication, read-out: WNV Inh; for WNV TI: therapeutic index CC50/EC50, WNV
[3] = tested on: DNG (D2-hRuPac cells); assay: DNG antiviral activity, D2-hRuPac cells, Renilla luciferase; type: cell-based, Dengue fever virus; settings: Dengue virus, secondary screening
[4] = tested on: EBOV minigenome; assay: microbe, parasite or virus in culture; type: cell-based, Ebola virus; settings: Zaire ebolavirus; for inhibition at 25 µM: 24 h, read-out: EBOV Inh; for EC50: read-out: EBOV EC50
[5] = tested on: RSV minigenome; assay: RSV minigenome-dependent β-galactosidase expression assay (RSV β-Gal); type: cell-based, respiratory syncytial virus; settings: for EC50 / inhibition at 25 µM: human respiratory syncytial virus; for EC50: Secondary Data, RSV, read-out: RSV EC50; for inhibition at 25 µM: primary screening, 25 μM final concentration, 24 hours, percent inhibition of viral replication, read-out: RSV Inh; for RSV TI: therapeutic index CC50/EC50, RSV
[6] = tested on: HCV replicon (Clone A cells, Huh7, subgenomic hepatits C virus RNA); assay: HCV Neo screening assay (HCV replicon, NPTII ELISA); type: cell-based, hepatitis C virus; settings: for EC50 / inhibition at 25 µM: Hepatitis C virus, Huh-7; for EC50: Secondary Data, HCV; for inhibition at 25 µM: primary screening, 25 μM final concentration, 24 hours, percent inhibition of viral replication, read-out: HCV Inh; for HCV TI: therapeutic index CC50/EC50, HCV
[7] = tested on: SINV (SR19-F-luc cells); assay: SINV antiviral activity, SR19-F-luc cells, Firefly luciferase; type: cell-based; settings: Sindbis virus; for inhibition at 25 µM: primary screening, 25 μM final concentration, 24 hours, percent inhibition of viral replication, read-out: SINV Inh; for EC50: secondary screening, SR19-F-luc cells
[8] = tested on: YFV (YF-hRuPac cells); assay: microbe, parasite or virus in culture; type: cell-based, yellow fever virus; settings: for inhibition at 25 µM / EC50: Yellow fever virus; for inhibition at 25 µM: 24 h, read-out: YFV Inh; for EC50: read-out: YFV EC50

Compound	CC50 ([1]; DNG CC50) [µM]	CC50 ([1]; EBOV CC50) [µM]	CC50 ([1]; HCV CC50) [µM]	CC50 ([1]; RSV CC50) [µM]	CC50 ([1]; SINV CC50) [µM]	CC50 ([1]; WNV CC50) [µM]	CC50 ([1]; YFV CC50) [µM]	EC50 [2] [µM]	inhibition at 25 µM [2] [%]	EC50 [3] [µM]	inhibition at 25 µM [4] [%]	EC50 [4] [µM]	EC50 [5] [µM]	inhibition at 25 µM [5] [%]	RSV TI [5]	inhibition at 25 µM [6] [%]	inhibition at 25 µM [7] [%]	EC50 [7] [µM]	inhibition at 25 µM [8] [%]	EC50 [8] [µM]	also measured
Cc1ccc2nc3c(c(Nc4ccccc4)c2c1)CCC3 [Compound 27]	50.7	50.7	24.2	50.7	50.7	50.7	50.7	2.78	60	38.4	-4.87	63.4	6	92.2	8.45	113	70.6	1.88	70.2	11.8	WNV TI [2]: 18.24; EC50 [6]: 14 µM; HCV TI [6]: 1.73; YFV TI [8]: 4.3
CCOC(=O)c1cnc2ccc(OC)cc2c1NCc1ccco1 [Compound 29]	22.1	22.1	≥ 75	22.1	22.1	22.1	22.1	3.36	105	7.43	86.4	8.75	0.29	96.2	76.21	35.3	-33.8	43	98.4	3.7	WNV TI [2]: 6.58; YFV TI [8]: 5.97
CCOC(=O)c1cnc2ccccc2c1NCc1ccco1 [Compound 30]	55.4	55.4	≥ 75	55.4	55.4	55.4	55.4	4.6	93.7	12	71	12.6	1.45	80.3	38.18	-18.1	-9.95	≥ 75	92.5	5.5	WNV TI [2]: 12.04; YFV TI [8]: 10.07
CCOC(=O)c1cnc2ccc(OCC)cc2c1Nc1ccc(I)cc1 [Compound 32]	≥ 75	≥ 75	≥ 75	≥ 75	≥ 75	≥ 75	≥ 75	≥ 75	-2.69	≥ 75	31.9	75	3.5	48.3	21.43	-11.1	-17.6	≥ 75	-16.9	≥ 75	–
CCOC(=O)c1cnc2ccc(OCC)cc2c1Nc1ccccc1CC [Compound 34]	61.9	61.9	35.6	61.9	61.9	61.9	61.9	39.1	60.4	≥ 75	53.8	75	5.08	77.3	12.19	78.6	34	≥ 75	58.5	23	WNV TI [2]: 1.58; EC50 [6]: 11.4 µM; HCV TI [6]: 3.12; YFV TI [8]: 2.69
CCOC(=O)c1cnc2c(C)cc(C)cc2c1NCc1ccco1 [Compound 35]	37.2	37.2	53	37.2	37.2	37.2	37.2	2.52	104	11.1	75.2	6.64	1.04	89.9	35.77	67.5	44.9	≥ 75	98.7	3.03	WNV TI [2]: 14.76; EC50 [6]: 8.35 µM; HCV TI [6]: 6.34; YFV TI [8]: 12.28
CCOC(=O)c1cnc2ccc(OCC)cc2c1NCc1ccco1 [Compound 36]	47.3	47.3	21.3	47.3	47.3	47.3	47.3	2.38	93.7	16.5	15.5	75	1.46	100	32.4	135	-58.8	≥ 75	94.4	6.78	WNV TI [2]: 19.87; EC50 [6]: 6 µM; HCV TI [6]: 3.55; YFV TI [8]: 6.98
CCOC(=O)c1cnc2c(ccc3ccccc32)c1NCc1ccco1 [Compound 37]	41.6	41.6	56	41.6	41.6	41.6	41.6	4.08	87.8	25.5	15.7	75	1.38	58	30.12	72.9	10.3	≥ 75	94.4	2.75	WNV TI [2]: 10.19; EC50 [6]: 13 µM; HCV TI [6]: 4.31; YFV TI [8]: 15.12
